Values of other authors, collected in US20080095838A1, “Solid pharmaceutical composition containing a lipophilic active principle and preparation method thereof” (CLL Pharma, priority 2002, published 2008).
Counter-ions that a name gives are not always drawn.

What was measured:
[1] = in vivo
[2] = in water

| SMILES | elimination half-life [1] | solubility [2] [mg/mL] |
| --- | --- | --- |
| CC(C)OC(=O)C(C)(C)Oc1ccc(C(=O)c2ccc(Cl)cc2)cc1 [fenofibrate, 2-(4-(4-chlorobenzoyl)phenoxy)-2-methylpropanoic acid 1-methylethyl ester] | approximately 20 hours |  |
| CC(C)(C)NC(=O)[C@@H]1C[C@@H]2CCCC[C@@H]2CN1C[C@@H](O)[C@H](Cc1ccccc1)NC(=O)[C@H](CC(N)=O)NC(=O)c1ccc2ccccc2n1 [saquinavir mesylate] |  | 2.22 |
